ChEMBL document CHEMBL1201862, “PubChem BioAssay data set” (2004)
Calls of active or inactive are those of the source.

Columns and labels:
Protein skinhead-1 = target: T1, Protein skinhead-1 (Caenorhabditis elegans, UniProt P34707); type: functional
T1 sequence (P34707 whole entry): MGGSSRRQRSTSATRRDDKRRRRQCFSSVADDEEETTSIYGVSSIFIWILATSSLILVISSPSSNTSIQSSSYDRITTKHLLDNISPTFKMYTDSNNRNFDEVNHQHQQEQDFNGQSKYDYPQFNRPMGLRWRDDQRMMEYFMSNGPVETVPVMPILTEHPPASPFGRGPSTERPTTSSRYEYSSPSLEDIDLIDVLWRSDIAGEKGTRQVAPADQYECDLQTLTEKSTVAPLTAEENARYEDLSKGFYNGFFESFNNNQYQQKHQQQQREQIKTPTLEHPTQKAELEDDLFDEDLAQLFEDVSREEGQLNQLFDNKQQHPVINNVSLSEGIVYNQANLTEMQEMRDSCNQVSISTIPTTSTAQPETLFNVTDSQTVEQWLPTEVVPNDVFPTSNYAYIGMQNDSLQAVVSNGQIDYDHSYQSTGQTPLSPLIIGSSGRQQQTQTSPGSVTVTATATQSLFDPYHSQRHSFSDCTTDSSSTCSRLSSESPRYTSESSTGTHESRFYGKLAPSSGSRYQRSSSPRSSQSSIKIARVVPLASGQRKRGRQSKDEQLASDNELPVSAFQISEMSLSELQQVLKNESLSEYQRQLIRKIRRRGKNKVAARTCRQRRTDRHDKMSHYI

[1] = Luminescence Cell-Based Dose Retest to Confirm Inhibitors of Cancer Stem Cells. [Related pubchem assays (depositor defined):AID2717, AID2721]; type: functional, Homo sapiens; conditions: Homo sapiens
Nonstructural protein 1 = Nonstructural protein 1 (Influenza A virus, UniProt Q194T2); type: functional, Influenza A virus (A/California/07/2009(H1N1))
Sequence of Nonstructural protein 1 (Q194T2 whole entry): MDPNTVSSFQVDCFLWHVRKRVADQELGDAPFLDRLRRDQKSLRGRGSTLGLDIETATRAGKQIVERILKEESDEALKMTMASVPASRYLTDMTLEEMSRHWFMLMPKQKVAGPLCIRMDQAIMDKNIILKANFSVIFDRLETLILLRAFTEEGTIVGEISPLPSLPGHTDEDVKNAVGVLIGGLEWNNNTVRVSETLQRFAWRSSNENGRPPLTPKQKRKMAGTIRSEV

[2] = target: T2, Calpain-2 catalytic subunit (Sus scrofa, UniProt P43367); test: m-calpain protease blockers, concentration series – biochemical, fluorogenic peptide substrate, dose response (AID 1420); type: functional
T2 sequence (P43367 whole entry): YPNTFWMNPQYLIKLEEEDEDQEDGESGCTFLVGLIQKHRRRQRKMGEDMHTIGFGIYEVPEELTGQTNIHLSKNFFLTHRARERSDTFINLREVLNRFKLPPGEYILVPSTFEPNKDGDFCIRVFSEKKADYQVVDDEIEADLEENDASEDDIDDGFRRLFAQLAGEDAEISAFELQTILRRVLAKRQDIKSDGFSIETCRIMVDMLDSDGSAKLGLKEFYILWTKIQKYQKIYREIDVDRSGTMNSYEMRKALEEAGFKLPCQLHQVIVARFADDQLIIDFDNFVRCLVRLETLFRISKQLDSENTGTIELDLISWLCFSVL

[3] = target: Voltage-gated inwardly rectifying potassium channel KCNH2 (Homo sapiens, UniProt Q12809); test: concentration-dependent hERG rescue from blockers – cell-based, thallium flux, dose response (AID 2121); type: ADME
Sequence of Voltage-gated inwardly rectifying potassium channel KCNH2 (Q12809 whole entry): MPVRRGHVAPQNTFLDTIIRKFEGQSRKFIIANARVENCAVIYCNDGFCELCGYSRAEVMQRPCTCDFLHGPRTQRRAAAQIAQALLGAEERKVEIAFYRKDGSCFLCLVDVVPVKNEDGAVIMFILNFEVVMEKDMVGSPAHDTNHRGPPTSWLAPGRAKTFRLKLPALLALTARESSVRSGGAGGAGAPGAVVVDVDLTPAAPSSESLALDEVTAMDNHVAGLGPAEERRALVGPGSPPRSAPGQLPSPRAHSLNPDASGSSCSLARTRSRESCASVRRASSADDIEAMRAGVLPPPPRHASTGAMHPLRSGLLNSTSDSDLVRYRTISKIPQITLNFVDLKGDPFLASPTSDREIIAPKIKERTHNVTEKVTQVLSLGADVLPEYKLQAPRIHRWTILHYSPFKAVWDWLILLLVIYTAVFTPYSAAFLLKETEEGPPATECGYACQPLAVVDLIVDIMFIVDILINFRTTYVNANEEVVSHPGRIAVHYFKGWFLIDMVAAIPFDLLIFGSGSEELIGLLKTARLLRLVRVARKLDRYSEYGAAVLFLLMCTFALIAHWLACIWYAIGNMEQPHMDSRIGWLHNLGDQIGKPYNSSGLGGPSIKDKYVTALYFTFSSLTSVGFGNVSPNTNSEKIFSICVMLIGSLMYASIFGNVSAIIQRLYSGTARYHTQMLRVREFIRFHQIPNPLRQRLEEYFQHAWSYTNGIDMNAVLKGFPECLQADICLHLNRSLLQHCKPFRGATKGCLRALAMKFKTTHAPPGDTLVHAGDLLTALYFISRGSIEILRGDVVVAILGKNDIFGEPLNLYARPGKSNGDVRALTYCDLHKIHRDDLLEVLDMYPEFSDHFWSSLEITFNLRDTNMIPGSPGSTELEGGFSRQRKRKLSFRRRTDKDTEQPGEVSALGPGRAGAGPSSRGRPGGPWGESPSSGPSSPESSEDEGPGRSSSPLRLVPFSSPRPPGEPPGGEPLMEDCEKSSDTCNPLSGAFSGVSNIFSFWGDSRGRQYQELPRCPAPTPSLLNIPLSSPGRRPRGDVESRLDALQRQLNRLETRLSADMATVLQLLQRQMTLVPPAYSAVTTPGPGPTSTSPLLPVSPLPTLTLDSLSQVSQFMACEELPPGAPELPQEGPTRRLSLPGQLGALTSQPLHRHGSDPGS

[4] = target: T3, Short transient receptor potential channel 4 (Mus musculus, UniProt Q9QUQ5); test: block of DAMGO-driven TRPC4 calcium entry – cell-based, HEK293 TRPC4/mu-opioid, Fluo-4 calcium, dose response (AID 434942); type: functional;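 also: potency of inhibitors blocking the TRPC4 calcium response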
T3 sequence (Q9QUQ5 whole entry): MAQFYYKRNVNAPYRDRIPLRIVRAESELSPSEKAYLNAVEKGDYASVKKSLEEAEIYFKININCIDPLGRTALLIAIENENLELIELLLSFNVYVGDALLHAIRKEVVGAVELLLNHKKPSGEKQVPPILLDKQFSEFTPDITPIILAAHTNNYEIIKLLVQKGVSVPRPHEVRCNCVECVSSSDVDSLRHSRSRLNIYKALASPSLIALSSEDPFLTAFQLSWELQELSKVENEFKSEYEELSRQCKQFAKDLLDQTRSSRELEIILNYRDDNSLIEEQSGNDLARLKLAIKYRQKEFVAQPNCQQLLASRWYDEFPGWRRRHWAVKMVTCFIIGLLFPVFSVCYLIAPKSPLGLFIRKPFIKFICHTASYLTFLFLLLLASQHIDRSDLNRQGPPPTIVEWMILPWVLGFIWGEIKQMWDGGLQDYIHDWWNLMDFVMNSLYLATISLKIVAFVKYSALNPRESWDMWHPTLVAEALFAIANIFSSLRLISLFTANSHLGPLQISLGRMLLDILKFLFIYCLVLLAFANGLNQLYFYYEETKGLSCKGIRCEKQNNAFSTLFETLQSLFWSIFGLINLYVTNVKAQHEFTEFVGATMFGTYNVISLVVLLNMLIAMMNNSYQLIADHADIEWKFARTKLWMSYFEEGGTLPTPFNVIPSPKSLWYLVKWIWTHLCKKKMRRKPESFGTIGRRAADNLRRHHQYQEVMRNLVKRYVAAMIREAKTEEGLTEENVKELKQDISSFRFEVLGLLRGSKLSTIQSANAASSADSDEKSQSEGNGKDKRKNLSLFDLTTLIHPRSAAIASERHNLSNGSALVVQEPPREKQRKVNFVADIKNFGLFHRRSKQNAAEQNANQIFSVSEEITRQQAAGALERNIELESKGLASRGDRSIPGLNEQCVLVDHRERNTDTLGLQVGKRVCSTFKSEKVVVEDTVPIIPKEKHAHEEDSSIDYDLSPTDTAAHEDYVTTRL

[5] = NIH3T3 cell viability loss – ATP luminescence, mouse fibroblasts, counter-screen, dose response (AID 2010); type: functional, cell-based;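 also: cells exposed to compound for about 90 hours before reading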
[6] = Trypanosoma cruzi growth suppression in host cells – NIH3T3 host cells, beta-gal luminescence, confirmation (AID 2044); type: functional, cell-based;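 also: intracellular parasites grown in NIH/3T3 mouse fibroblasts as host cells; luminescent beta-galactosidase reporter signal from transgenic T. cruzi replicating inside host cells; inhibitors lower the luminescence signal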
[7] = target: T4, Microphthalmia-associated transcription factor (Homo sapiens, UniProt O75030); test: reducers of TRPM1 reporter luminescence, concentration series – cell-based, SK-MEL-5, cherry-picked, set 3, MITF inhibitor project, dose response (AID 493073); type: functional;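 also: SK-MEL-5 melanoma cells with luciferase driven by the MITF target TRPM1 promoter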
T4 sequence (O75030 whole entry): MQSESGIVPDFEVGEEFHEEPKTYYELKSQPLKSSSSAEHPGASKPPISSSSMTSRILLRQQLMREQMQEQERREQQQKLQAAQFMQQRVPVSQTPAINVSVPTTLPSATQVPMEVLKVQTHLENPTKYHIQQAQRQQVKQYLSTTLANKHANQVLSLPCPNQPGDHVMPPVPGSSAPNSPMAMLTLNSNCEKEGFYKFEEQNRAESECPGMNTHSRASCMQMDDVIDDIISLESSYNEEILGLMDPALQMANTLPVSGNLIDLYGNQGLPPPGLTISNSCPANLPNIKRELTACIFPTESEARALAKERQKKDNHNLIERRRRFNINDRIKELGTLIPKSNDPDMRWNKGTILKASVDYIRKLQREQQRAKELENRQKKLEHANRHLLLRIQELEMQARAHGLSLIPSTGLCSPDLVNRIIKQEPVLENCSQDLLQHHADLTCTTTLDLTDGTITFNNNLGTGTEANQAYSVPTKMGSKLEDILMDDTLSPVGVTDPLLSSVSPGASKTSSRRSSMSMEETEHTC

[8] = target: Protein-tyrosine kinase 2-beta (Homo sapiens, UniProt Q14289);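 also: potency of inhibitors of PYK2 kinase phosphorylation of poly-GT substrate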
Sequence of Protein-tyrosine kinase 2-beta (Q14289 whole entry): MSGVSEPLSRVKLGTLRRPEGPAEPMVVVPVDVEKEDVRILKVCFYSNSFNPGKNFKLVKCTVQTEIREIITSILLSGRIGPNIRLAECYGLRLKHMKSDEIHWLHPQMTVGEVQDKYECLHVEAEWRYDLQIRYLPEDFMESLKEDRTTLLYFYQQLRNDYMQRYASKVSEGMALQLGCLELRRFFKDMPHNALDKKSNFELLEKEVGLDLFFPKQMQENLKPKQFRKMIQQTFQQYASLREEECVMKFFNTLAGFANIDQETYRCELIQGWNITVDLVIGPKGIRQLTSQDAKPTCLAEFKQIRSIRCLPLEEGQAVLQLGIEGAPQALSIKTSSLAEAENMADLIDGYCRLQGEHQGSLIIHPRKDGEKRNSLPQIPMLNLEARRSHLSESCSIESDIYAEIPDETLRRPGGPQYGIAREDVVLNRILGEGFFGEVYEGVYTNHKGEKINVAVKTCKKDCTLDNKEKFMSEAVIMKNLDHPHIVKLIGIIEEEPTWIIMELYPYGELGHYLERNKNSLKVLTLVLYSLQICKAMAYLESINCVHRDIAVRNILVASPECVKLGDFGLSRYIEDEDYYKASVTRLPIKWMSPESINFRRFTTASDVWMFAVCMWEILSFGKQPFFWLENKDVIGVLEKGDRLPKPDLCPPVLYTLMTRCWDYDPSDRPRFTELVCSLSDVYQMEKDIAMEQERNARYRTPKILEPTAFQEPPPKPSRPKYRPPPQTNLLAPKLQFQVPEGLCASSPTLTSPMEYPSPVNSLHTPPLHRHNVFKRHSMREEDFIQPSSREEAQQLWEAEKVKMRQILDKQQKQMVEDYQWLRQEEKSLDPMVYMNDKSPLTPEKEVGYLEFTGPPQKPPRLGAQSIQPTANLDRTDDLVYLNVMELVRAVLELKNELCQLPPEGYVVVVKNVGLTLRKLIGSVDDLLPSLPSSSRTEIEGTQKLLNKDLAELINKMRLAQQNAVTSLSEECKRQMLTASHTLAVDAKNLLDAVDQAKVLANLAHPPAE

[9] = M. tuberculosis H37Rv growth inhibitors, H37Rv strain (AID 1626); type: functional
[10] = target: T5, Rac GTPase-activating protein 1 (Homo sapiens, UniProt Q9H0H5); test: blockers of MgcRacGAP-driven Rac1 GTP hydrolysis – biochemical, ADP Hunter fluorescence, primary and confirmatory, confirmation (AID 624330); type: functional
T5 sequence (Q9H0H5 whole entry): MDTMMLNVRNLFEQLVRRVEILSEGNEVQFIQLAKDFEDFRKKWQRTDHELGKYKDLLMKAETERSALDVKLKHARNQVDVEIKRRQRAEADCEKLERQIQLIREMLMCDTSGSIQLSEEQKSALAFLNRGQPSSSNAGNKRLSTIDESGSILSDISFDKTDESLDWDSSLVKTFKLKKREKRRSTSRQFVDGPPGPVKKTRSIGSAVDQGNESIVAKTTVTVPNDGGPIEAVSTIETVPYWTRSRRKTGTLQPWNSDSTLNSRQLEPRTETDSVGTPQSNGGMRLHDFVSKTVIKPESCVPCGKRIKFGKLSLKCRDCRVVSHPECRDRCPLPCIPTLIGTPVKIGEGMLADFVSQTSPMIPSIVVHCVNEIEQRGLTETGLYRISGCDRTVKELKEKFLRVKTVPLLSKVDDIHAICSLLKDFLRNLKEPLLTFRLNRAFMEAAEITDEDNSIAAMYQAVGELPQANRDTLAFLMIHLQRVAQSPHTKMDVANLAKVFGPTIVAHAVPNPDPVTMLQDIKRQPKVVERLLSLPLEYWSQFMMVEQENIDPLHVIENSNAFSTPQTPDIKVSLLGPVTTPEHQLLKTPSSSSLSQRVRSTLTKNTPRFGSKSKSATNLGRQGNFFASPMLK

Estrogen receptor beta = Estrogen receptor beta (Homo sapiens, UniProt Q92731); test: blockers of SRC-3 recruitment to ERβ – biochemical, ELISA, streptavidin-HRP readout, orthogonal assay, confirmation (AID 1060)
Sequence of Estrogen receptor beta (Q92731 whole entry): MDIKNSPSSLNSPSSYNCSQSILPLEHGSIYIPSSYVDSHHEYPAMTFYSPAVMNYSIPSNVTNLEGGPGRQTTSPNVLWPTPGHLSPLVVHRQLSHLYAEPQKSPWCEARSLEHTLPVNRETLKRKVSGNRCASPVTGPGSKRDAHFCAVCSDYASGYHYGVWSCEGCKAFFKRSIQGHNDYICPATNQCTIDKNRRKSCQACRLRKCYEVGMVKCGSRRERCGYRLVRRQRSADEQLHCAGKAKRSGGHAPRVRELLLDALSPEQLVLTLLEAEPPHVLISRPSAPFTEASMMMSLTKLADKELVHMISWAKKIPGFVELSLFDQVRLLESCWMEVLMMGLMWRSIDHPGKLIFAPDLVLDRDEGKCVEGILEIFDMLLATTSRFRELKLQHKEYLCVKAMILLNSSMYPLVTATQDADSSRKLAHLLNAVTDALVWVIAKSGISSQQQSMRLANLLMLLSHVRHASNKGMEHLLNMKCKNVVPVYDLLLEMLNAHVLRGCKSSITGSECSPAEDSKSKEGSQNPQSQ

[11] = HPDE-C7 pancreatic duct cell viability loss – fluorescence, HTS (AID 430); type: functional, cell-based; conditions: Homo sapiens
[12] = viability loss of HPDE-C7K cells – cell-based, fluorescence, HTS, primary screen (AID 431); type: functional; conditions: Homo sapiens
[13] = fluconazole-exposed Candida albicans growth modulators – fluorescence, retest, confirmation (AID 2467); type: functional, cell-based
INS1 = test: INS-1E survival protection against cytokine death – cell-based, luminescence, retest, dose response (AID 449756); type: functional; conditions: Rattus norvegicus;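 also: cell death triggered by IL-1 beta plus TNF-alpha plus IFN-gamma mixture; protective hits raise ATP signal compared with cytokine alone wells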
[14] = general mammalian cell viability loss – activator set, cherry-pick, cytotoxicity control for miR-122 modulator project, dose response (AID 720690); type: functional, cell-based;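 also: HEK293T human cells scored for general mammalian cytotoxicity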
[15] = NIH-3T3 fibroblast cytotoxicity, dose response, cytotoxicity control, cell-based, fluorescence, Alamar Blue, secondary assay (AID 2327); type: functional;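 also: NIH-3T3 mouse fibroblasts cultured with fluconazole at 8 µg/mL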
[16] = general mammalian cell viability loss – inhibitor set, cherry-pick, set 2, cytotoxicity control for miR-122 modulator project, dose response (AID 720697); type: functional, cell-based
[17] = target: T6, Serine/threonine-protein phosphatase (Candida dubliniensis (strain CD36 / CBS 7987 / NCPF 3949 / NRRLY-17841) (Yeast), UniProt B9W6M3); test: blockers of CaCl2-induced CDRE-lacZ signaling – S. cerevisiae, luminescence, secondary, dose response (AID 2388); type: functional, cell-based;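 also: yeast reporter cells carrying a calcineurin-responsive lacZ construct stimulated with calcium chloride; luminescent beta-galactosidase reporter signal in whole cells rather than isolated phosphatase activity; potency for inhibition where a drop in reporter signal means calcineurin blockade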
T6 sequence (B9W6M3 whole entry): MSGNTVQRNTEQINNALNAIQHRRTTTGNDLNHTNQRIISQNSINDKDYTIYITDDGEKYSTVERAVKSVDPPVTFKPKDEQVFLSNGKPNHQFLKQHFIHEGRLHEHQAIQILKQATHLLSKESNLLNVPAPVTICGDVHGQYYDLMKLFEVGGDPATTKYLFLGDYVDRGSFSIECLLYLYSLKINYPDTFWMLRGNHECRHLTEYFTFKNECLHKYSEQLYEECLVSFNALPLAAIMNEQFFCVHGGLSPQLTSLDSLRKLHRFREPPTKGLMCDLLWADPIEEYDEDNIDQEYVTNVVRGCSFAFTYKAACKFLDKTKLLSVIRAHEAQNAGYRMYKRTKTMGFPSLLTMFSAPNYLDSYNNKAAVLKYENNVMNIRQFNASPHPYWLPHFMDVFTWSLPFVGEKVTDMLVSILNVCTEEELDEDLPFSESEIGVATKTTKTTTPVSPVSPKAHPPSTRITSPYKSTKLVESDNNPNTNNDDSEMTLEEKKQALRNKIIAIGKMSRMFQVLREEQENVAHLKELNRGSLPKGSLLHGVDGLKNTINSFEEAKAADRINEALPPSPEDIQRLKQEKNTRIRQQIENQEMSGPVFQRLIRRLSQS

[18] = target: ATP-dependent molecular chaperone HSP82 (Candida albicans (strain WO-1) (Yeast), UniProt C4YTQ8); test: steroid-induced GRE reporter decrease in yeast – S. cerevisiae, luminescence, Hsp90 inhibitor project, dose response (AID 2400); type: functional, cell-based;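 also: beta-galactosidase luminescence from glucocorticoid response element reporter as proxy for Hsp90 function; inhibitor potency where signal loss means Hsp90 inhibition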
Sequence of ATP-dependent molecular chaperone HSP82 (C4YTQ8 whole entry): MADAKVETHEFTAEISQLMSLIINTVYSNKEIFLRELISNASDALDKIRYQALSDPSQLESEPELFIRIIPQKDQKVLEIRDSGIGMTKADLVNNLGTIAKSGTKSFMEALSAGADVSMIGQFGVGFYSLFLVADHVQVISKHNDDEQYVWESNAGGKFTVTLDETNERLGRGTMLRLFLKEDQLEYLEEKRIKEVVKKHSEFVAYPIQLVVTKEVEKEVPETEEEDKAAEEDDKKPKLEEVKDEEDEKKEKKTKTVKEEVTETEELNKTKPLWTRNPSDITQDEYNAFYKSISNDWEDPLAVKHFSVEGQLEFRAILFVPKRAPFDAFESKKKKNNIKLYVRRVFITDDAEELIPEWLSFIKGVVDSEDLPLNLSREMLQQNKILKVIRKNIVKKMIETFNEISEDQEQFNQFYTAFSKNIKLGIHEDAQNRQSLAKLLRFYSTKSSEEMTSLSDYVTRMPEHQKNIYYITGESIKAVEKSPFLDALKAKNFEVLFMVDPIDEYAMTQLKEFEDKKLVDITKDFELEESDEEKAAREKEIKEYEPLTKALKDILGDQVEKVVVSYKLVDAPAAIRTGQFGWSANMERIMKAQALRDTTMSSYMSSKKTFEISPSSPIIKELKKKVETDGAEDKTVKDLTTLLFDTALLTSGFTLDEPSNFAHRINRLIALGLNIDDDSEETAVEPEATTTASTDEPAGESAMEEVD

With `Cc1ccc(C(C#N)c2ccc3c(C(F)(F)F)cc(C(F)(F)F)nc3n2)cc1` (centres undefined) the IC50 (Protein skinhead-1) was > 100 µM (inactive), the AC50 [1] was 1.78 µM (active) and the IC50 (Nonstructural protein 1) was 24.4 µM (active). The IC50 [2] was > 50 µM (not active) and the EC50 [3] was 6 µM (active).
In the case of `Cc1ccc(-c2c[n+](Cc3cccc(Cl)c3)c3n2CCC3)cc1`, the EC50 [4] is reported as 1.33 µM (active), the EC50 [5] is reported as > 30 µM (not active) and the EC50 [6] is reported as < 0.1 µM (active). The AC50 [7] was 12.2 µM (active) and the EC50 (cells) was 0.025 µM (active).
In the case of `Cc1nn2c(c1-c1ccccc1)N=C1CCCC(O)=C1C2c1ccccc1` (centres undefined), the IC50 [8] is reported as > 69.5 µM (not active).
With `CCOC(=O)CNC(=O)CSc1ncnc2c1nnn2-c1ccc(F)cc1` the IC50 [9] was > 100 µM (active).
With `Cc1ccccc1-c1ccc(Nc2ccc(N3CCOCC3)cc2)nn1` the EC50 [5] was > 60 µM (not active), the IC50 [10] was 79.6 µM (active) and the EC50 [6] was 1.42 µM (active). For the same compound, the IC50 (Estrogen receptor beta) was < 0.023 µM (not active) and the IC50 [8] was 14.5 µM (not active).
With `CCOC(=O)C1CCN(Cc2c[nH]nc2-c2ccc(C)cc2)CC1` the EC50 [11] was > 20 µM (not active) and the EC50 [12] was > 20 µM (not active).
In the case of `CN(C)CCN(C(=O)c1cc(Cl)sc1Cl)c1nc2ccc(F)cc2s1`, the EC50 [5] is reported as > 60 µM (not active), the EC50 [6] is reported as < 0.1 µM (active) and the EC50 (cells) is reported as 0.211 µM (active).
In the case of `N#C/C(=C/c1ccc(-c2ccc(Br)cc2)o1)C(=O)NC1CCCCC1`, the IC50 [9] is reported as > 100 µM (active).
In the case of `O=C(Oc1c(CN2CCOCC2)cc(Cl)c2cccnc12)c1ccc(F)cc1`, the EC50 [13] is reported as 1.54 µM (active), the AC50 (INS1) is reported as 3.99 µM (active) and the AC50 [14] is reported as 9.1 µM (active). The EC50 [5] was > 60 µM (not active), the EC50 [11] was 4.28 µM (active) and the EC50 [15] was > 160 µM (inconclusive). For the same compound, the EC50 [6] was 4.69 µM (active), the AC50 [16] was 5.7 µM (active) and the EC50 [17] was > 180 µM (inactive). The EC50 [18] was > 160 µM (inactive) and the EC50 [12] was 12.7 µM (active).
